Data published in publication PMC11167047 (Cell Death Discovery, 2024).

Experiments:
Test in all cases: kinome screen (33PanQinase)
Format in all cases: biochemical
[1] = molecular target: T1, ACVR2B (Homo sapiens, UniProt Q13705)
T1 construct: purchased Reaction Biology Europe GmbH (formerly ProQinase)
Protocol: (§1) The Kinome Screening was performed by Reaction Biology Europe GmbH (http://reactionbiology.com; Freiburg i. Br., Germany).

[2] = molecular target: T2, CLK4 (Homo sapiens, UniProt Q9HAZ1)
T2 construct: purchased Reaction Biology Europe GmbH (formerly ProQinase)
Protocol: as §1

[3] = molecular target: T3, ERBB2 (Homo sapiens, UniProt P04626)
T3 construct: purchased Reaction Biology Europe GmbH (formerly ProQinase)
Protocol: as §1

[4] = molecular target: T4, GSK3α (Homo sapiens, UniProt P49840)
T4 construct: purchased Reaction Biology Europe GmbH (formerly ProQinase)
Protocol: as §1

[5] = molecular target: T5, HIPK4 (Homo sapiens, UniProt Q8NE63)
T5 construct: purchased Reaction Biology Europe GmbH (formerly ProQinase)
T5 sequence (Q8NE63 1-616): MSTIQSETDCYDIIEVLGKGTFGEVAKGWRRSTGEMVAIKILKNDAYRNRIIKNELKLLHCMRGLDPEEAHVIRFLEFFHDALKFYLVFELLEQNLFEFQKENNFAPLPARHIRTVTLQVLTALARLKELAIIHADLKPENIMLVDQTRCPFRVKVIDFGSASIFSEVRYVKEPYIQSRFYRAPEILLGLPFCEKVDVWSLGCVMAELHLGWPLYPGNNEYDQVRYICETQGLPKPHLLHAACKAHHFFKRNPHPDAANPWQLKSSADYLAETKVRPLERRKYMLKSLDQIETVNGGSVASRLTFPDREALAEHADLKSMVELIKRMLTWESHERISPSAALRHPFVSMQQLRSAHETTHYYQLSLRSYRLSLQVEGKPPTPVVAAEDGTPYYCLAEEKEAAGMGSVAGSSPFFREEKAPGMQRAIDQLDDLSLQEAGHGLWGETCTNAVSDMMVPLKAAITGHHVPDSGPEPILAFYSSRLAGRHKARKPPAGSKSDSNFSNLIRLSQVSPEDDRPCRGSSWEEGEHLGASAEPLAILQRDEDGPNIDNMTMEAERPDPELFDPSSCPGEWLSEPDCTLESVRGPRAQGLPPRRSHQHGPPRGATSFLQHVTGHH
Protocol: as §1

[6] = molecular target: T6, LIMK2 (Homo sapiens, UniProt P53671)
T6 construct: purchased Reaction Biology Europe GmbH (formerly ProQinase)
Protocol: as §1

[7] = molecular target: T7, MYLK (Homo sapiens, UniProt Q15746)
T7 construct: purchased Reaction Biology Europe GmbH (formerly ProQinase)
Protocol: as §1

[8] = molecular target: T8, PAK2 (Homo sapiens, UniProt Q13177)
T8 construct: purchased Reaction Biology Europe GmbH (formerly ProQinase)
Protocol: as §1

[9] = molecular target: T9, PKCη (Homo sapiens, UniProt P24723)
T9 construct: purchased Reaction Biology Europe GmbH (formerly ProQinase)
Protocol: as §1

[10] = molecular target: T10, PKN3 (Homo sapiens, UniProt Q6P5Z2)
T10 construct: purchased Reaction Biology Europe GmbH (formerly ProQinase)
Protocol: as §1

[11] = molecular target: T11, PRKG2 (Homo sapiens, UniProt Q13237)
T11 construct: purchased Reaction Biology Europe GmbH (formerly ProQinase)
T11 sequence (Q13237 1-762): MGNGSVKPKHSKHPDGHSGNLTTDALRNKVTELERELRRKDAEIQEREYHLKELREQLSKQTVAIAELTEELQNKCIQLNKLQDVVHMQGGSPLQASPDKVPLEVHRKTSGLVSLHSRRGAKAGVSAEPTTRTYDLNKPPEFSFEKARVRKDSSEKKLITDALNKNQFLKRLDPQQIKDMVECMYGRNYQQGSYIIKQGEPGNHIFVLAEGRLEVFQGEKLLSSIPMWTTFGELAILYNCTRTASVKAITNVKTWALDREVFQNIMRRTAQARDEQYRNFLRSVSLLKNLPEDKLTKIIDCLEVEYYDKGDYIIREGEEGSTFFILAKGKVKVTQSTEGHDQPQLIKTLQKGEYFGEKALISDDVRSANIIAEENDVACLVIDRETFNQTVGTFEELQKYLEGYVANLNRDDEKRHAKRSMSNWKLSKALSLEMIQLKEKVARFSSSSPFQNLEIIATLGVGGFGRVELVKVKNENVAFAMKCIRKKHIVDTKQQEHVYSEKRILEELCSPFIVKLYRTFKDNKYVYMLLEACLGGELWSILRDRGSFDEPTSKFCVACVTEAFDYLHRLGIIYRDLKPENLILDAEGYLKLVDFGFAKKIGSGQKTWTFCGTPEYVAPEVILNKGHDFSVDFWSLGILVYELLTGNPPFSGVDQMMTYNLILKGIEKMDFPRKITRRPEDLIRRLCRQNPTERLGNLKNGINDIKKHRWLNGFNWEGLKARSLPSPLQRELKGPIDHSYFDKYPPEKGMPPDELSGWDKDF
Protocol: as §1

[12] = molecular target: T12, ROCK1 (Homo sapiens, UniProt Q13464)
T12 construct: purchased Reaction Biology Europe GmbH (formerly ProQinase)
Protocol: as §1

[13] = molecular target: T13, SGK3 (Homo sapiens, UniProt Q96BR1)
T13 construct: purchased Reaction Biology Europe GmbH (formerly ProQinase)
T13 sequence (Q96BR1 1-496): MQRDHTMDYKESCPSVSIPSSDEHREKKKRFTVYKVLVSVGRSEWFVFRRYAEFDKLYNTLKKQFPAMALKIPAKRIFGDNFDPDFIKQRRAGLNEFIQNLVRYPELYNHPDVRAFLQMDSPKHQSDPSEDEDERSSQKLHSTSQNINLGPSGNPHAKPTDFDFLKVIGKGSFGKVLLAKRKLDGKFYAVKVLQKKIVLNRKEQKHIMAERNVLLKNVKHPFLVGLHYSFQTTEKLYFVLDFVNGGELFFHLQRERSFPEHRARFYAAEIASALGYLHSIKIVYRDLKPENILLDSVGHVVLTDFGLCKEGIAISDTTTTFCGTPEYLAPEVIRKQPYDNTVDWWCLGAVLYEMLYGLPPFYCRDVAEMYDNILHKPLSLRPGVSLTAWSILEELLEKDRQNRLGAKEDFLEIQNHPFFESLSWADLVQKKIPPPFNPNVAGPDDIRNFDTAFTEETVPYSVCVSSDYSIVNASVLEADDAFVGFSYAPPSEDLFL
Protocol: as §1

[14] = molecular target: T14, SLK (Homo sapiens, UniProt Q9H2G2)
T14 construct: purchased Reaction Biology Europe GmbH (formerly ProQinase)
Protocol: as §1

[15] = molecular target: T15, VRK2 (Homo sapiens, UniProt Q86Y07)
T15 construct: purchased Reaction Biology Europe GmbH (formerly ProQinase)
Protocol: as §1

T12 sequence (Q13464 whole entry): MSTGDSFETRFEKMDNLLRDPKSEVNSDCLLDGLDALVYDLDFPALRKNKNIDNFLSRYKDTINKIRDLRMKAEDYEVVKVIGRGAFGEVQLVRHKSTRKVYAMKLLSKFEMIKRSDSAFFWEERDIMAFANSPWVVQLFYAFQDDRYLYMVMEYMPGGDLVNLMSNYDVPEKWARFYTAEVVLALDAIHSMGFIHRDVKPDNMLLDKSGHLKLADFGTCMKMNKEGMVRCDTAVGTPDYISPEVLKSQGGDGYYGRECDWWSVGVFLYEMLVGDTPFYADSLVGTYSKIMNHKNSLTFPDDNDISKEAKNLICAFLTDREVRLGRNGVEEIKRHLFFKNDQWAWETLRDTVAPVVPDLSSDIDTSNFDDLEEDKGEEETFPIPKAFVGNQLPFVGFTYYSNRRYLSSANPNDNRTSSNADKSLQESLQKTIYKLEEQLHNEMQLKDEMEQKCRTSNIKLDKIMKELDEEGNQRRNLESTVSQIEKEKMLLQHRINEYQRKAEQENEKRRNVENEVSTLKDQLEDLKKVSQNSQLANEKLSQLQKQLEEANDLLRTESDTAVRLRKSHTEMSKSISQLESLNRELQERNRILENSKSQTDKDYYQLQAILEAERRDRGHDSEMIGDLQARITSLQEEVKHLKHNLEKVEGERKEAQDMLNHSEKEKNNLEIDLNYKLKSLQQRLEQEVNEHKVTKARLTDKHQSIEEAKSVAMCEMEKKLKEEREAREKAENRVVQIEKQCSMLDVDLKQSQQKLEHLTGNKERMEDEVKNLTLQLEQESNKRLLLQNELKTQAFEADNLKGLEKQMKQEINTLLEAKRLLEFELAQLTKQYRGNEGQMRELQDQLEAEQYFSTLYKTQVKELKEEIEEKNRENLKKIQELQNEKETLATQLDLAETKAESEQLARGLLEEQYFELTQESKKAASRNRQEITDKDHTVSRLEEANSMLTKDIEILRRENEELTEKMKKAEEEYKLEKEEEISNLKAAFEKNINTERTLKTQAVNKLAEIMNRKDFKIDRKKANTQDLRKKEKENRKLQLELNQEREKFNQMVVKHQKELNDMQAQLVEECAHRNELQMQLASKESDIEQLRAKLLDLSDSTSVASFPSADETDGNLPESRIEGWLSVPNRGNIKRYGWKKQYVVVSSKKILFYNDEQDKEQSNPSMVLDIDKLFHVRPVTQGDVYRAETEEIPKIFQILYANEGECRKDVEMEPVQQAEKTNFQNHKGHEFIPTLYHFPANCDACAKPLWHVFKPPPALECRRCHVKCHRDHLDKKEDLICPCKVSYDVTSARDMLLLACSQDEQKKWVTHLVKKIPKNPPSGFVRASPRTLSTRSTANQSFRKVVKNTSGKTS
T1 sequence (Q13705 19-512): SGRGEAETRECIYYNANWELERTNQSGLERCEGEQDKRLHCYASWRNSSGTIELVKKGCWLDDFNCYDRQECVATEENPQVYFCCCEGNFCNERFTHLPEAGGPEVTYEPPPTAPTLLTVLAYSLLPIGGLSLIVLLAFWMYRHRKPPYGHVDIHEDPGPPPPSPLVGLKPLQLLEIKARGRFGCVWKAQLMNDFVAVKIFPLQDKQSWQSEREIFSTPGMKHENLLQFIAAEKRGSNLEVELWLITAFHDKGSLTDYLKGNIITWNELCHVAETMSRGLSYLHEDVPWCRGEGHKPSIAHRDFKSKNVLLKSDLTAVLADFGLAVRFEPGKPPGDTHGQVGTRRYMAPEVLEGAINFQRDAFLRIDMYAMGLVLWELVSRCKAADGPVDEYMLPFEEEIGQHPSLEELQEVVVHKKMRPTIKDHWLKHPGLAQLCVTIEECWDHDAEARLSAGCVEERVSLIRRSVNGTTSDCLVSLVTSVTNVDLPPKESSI
T14 sequence (Q9H2G2 whole entry): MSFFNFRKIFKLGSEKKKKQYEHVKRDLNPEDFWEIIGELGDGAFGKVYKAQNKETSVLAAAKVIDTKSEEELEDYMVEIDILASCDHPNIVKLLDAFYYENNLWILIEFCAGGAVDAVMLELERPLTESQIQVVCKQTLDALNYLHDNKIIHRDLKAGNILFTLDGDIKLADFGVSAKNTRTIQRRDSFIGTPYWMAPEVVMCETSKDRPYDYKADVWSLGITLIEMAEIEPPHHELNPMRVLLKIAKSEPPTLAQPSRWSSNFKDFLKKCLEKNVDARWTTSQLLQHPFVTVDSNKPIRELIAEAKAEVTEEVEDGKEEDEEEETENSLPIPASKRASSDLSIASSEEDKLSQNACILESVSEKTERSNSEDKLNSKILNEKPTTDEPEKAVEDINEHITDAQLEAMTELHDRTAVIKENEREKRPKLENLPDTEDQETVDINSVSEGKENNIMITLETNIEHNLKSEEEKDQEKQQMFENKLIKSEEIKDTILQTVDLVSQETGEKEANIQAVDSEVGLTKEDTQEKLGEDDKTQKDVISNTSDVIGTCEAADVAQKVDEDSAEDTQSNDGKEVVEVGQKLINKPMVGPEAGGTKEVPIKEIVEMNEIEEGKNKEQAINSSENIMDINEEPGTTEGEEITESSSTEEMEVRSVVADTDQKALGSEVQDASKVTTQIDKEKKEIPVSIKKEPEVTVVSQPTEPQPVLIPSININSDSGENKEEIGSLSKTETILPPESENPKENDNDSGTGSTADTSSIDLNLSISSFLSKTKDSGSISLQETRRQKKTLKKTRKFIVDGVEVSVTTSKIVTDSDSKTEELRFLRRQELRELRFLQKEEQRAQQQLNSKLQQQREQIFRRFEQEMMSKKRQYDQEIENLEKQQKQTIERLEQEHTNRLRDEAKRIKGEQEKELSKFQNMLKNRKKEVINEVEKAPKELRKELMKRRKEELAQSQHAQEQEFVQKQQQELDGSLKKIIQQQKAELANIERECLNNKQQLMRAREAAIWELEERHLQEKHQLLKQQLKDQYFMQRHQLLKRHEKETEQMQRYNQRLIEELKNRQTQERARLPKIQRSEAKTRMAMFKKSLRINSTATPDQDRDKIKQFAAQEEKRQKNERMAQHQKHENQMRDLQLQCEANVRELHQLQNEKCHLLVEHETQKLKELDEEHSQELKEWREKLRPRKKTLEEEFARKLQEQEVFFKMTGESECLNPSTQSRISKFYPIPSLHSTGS
T6 sequence (P53671 whole entry): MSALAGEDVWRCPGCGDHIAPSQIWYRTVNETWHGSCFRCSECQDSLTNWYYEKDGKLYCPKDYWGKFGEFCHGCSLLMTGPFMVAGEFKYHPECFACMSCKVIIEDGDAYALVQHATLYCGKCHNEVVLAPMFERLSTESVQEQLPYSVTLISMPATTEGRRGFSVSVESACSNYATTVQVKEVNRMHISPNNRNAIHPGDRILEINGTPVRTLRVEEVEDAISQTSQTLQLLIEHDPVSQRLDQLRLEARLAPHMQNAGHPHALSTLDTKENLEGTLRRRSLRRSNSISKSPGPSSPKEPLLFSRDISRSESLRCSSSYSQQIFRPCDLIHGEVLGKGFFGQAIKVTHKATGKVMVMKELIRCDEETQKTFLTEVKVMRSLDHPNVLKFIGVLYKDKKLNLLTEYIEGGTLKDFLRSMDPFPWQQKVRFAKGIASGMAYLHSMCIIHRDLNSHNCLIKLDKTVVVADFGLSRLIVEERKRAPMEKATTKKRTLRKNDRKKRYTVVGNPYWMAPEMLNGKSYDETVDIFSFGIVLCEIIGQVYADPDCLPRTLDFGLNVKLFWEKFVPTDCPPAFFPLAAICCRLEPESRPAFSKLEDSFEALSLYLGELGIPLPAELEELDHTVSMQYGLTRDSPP
T8 sequence (Q13177 whole entry): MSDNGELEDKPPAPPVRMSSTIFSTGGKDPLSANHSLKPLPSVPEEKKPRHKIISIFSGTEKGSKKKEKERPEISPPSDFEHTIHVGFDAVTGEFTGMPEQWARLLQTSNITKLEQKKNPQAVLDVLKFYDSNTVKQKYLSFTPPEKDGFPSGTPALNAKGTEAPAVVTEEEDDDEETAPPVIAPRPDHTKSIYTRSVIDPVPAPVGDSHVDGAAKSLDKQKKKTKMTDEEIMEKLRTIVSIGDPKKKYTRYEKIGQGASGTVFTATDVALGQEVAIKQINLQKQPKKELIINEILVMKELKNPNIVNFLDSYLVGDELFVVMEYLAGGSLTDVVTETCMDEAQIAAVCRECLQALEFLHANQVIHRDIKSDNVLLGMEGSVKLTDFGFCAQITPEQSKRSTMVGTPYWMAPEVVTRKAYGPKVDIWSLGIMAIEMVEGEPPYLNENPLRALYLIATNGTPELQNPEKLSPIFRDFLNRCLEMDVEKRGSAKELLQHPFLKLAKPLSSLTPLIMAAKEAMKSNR
T15 sequence (Q86Y07 whole entry): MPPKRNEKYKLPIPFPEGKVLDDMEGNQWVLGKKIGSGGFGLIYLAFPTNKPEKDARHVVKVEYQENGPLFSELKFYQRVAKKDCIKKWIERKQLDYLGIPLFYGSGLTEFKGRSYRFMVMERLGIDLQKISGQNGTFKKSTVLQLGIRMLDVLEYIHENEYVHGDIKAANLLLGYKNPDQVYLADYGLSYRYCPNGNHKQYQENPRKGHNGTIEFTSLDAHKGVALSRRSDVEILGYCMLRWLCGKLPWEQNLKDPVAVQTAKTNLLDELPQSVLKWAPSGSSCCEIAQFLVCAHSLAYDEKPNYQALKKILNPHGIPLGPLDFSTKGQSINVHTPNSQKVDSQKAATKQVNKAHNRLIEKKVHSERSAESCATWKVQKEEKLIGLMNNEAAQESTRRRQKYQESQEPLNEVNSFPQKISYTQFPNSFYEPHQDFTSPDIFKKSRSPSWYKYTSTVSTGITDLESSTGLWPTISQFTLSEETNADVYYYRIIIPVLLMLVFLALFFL

Compound | residual kinase activity ([1]; 0.3 µM) | residual kinase activity ([2]; 0.3 µM) | residual kinase activity ([3]; 0.3 µM) | residual kinase activity ([4]; 0.3 µM) | residual kinase activity ([5]; 0.3 µM) | residual kinase activity ([6]; 0.3 µM) | residual kinase activity ([7]; 0.3 µM) | residual kinase activity ([8]; 0.3 µM) | residual kinase activity ([9]; 0.3 µM) | residual kinase activity ([10]; 0.3 µM) | residual kinase activity ([11]; 0.3 µM) | residual kinase activity ([12]; 0.3 µM) | residual kinase activity ([13]; 0.3 µM) | residual kinase activity ([14]; 0.3 µM) | residual kinase activity ([15]; 0.3 µM) | also measured
c1ccc(CNc2cc(-c3c[nH]c4ncccc34)ccn2)cc1 [meriolin 36] | 22 % of control | 1 % of control | 90 % of control | 41 % of control | 27 % of control | 70 % of control | 62 % of control | 71 % of control | 2 % of control | 27 % of control | 14 % of control | 1 % of control | 81 % of control | 4 % of control | 93 % of control | residual kinase activity ([1]; 3 µM): 5 % of control; residual kinase activity ([2]; 3 µM): 1 % of control; residual kinase activity ([3]; 3 µM): 44 % of control; residual kinase activity ([4]; 3 µM): 7 % of control; residual kinase activity ([5]; 3 µM): 2 % of control; residual kinase activity ([6]; 3 µM): 27 % of control; residual kinase activity ([7]; 3 µM): 25 % of control; residual kinase activity ([8]; 3 µM): 17 % of control; residual kinase activity ([9]; 3 µM): 2 % of control; residual kinase activity ([10]; 3 µM): 3 % of control; residual kinase activity ([11]; 3 µM): 2 % of control; residual kinase activity ([12]; 3 µM): 1 % of control; residual kinase activity ([13]; 3 µM): 27 % of control; residual kinase activity ([14]; 3 µM): 1 % of control; residual kinase activity ([15]; 3 µM): 45 % of control
COc1ccnc2[nH]cc(-c3cc(N)nc(N)c3)c12 [meriolin 16] | 74 % of control | 0 % of control | 102 % of control | 93 % of control | 24 % of control | 101 % of control | 71 % of control | 93 % of control | 2 % of control | 74 % of control | 7 % of control | 2 % of control | 84 % of control | 77 % of control | 92 % of control | residual kinase activity ([1]; 0.03 µM): 81 % of control; residual kinase activity ([2]; 0.03 µM): 3 % of control; residual kinase activity ([3]; 0.03 µM): 102 % of control; residual kinase activity ([4]; 0.03 µM): 99 % of control; residual kinase activity ([5]; 0.03 µM): 74 % of control; residual kinase activity ([6]; 0.03 µM): 106 % of control; residual kinase activity ([7]; 0.03 µM): 103 % of control; residual kinase activity ([8]; 0.03 µM): 92 % of control; residual kinase activity ([9]; 0.03 µM): 8 % of control; residual kinase activity ([10]; 0.03 µM): 83 % of control; residual kinase activity ([11]; 0.03 µM): 48 % of control; residual kinase activity ([12]; 0.03 µM): 24 % of control; residual kinase activity ([13]; 0.03 µM): 94 % of control; residual kinase activity ([14]; 0.03 µM): 83 % of control; residual kinase activity ([15]; 0.03 µM): 103 % of control
